The source of these data is patent US10072017B2, “Compounds and methods for the treatment of cystic fibrosis” (Flatley Discovery Lab, LLC, priority 2015, dated 2018).

The assay addresses T1, CFTR (Homo sapiens, UniProt P13569, DEL508-508).
T1 construct: Primary CF airway epithelial cells were obtained from the UNC Cystic Fibrosis Tissue Procurement and Cell Culture Core; host or cells: primary CF airway epithelial cells
In words: Equivalent current assay in Primary CF airway epithelial cells (NAUC). Type of assay: cell-based. The conditions noted are these: 24 h, normalized to VX809 (3 μM) positive control; for Nauc @ 3 μM: 3 μM test compound; for Nauc @ 10 μM: 10 μM test compound. The procedure, abridged: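 NAUC is the area under the curve from forskolin (10 μM) plus VX770 (1 μM) addition to CFTR-172 (20 μM) block, after benzamil (5 μM). It is corrected for vehicle and scaled to 3 μM VX809 as 1.0 and DMSO as 0.0. Cells were exposed for 24 h to compounds with VX809; medians of ≥4 replicates were fitted sigmoidally.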

T1 sequence (P13569 with tags, fused parts or gaps DEL508-508): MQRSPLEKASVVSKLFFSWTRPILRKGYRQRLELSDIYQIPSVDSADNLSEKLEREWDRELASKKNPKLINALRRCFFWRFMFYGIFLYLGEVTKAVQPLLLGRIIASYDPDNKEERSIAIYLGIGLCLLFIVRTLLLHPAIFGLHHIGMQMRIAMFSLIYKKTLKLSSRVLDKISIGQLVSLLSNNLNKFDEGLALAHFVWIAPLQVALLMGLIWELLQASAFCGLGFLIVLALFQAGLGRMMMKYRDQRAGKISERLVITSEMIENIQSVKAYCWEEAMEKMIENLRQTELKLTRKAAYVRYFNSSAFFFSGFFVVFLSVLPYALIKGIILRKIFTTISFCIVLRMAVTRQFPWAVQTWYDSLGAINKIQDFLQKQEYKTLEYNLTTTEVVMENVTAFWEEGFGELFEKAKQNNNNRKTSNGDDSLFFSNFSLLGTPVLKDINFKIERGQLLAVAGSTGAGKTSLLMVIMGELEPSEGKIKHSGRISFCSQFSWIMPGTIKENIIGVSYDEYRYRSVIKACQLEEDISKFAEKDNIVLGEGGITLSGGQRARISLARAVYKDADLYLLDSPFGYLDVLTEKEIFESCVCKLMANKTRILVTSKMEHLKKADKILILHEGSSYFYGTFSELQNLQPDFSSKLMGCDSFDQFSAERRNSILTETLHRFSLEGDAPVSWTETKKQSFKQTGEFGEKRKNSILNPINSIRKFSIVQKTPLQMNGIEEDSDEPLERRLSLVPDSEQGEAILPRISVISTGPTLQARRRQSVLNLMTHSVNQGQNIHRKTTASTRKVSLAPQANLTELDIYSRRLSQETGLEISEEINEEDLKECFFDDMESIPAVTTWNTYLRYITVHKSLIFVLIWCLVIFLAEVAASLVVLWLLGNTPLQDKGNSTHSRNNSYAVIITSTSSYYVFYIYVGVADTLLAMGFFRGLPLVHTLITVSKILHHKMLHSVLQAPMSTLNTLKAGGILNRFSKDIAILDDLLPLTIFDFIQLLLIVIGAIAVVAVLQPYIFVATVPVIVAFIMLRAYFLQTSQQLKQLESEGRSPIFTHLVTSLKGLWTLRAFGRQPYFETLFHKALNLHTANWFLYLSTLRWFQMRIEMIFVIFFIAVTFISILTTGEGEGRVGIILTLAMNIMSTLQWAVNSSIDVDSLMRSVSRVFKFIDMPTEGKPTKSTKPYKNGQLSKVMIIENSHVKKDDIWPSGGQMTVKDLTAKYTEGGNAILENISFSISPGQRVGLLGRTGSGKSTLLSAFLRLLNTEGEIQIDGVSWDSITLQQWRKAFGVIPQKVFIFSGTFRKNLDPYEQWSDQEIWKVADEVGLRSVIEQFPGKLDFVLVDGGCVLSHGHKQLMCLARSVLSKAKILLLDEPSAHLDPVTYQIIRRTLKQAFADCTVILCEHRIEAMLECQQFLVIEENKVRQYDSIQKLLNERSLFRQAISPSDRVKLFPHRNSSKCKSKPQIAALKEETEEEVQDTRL

Take `[2H]C12C(=O)N(c3cc(Cl)c(OC)c(Cl)c3)C(=O)C1([2H])C1(C(=O)Nc3c(Cl)cc(Cl)cc31)N1CC(C)(C)CC12` (stereo not shown) [Example 149]: the “Nauc @ 3 μM” value is on record as “+++ (NAUC “+++” refers to an observed NAUC >170% of positive control)” and the “Nauc @ 10 μM” value is given as “+++ (NAUC “+++” refers to an observed NAUC >170% of positive control)”.
Consider `O=C(O)c1cccc(C2C3C(=O)N(c4cc(Cl)cc(Cl)c4)C(=O)C3C3CCCN32)c1` (stereo not shown) [Example 150], for which the “Nauc @ 3 μM” value is listed as “+ (NAUC “+” refers to an observed NAUC <140% of positive control)” and the “Nauc @ 10 μM” value is “++ (NAUC “++” refers to an observed NAUC 170-140% of positive control)”.
`CC(C)(C)NC(=O)N[C@H]1CC2C3C(=O)N(c4cc(Cl)cc(Cl)c4)C(=O)C3C3(C(=O)Nc4c(Cl)cc(Cl)cc43)N2C1` (stereo partly shown) [Example 153]: the “Nauc @ 3 μM” value was “+ (NAUC “+” refers to an observed NAUC <140% of positive control)” and the “Nauc @ 10 μM” value is on record as “++ (NAUC “++” refers to an observed NAUC 170-140% of positive control)”.
For `O=C1C2C(Cc3ccccc3)NC3(C(=O)Nc4c(Cl)cc(Cl)cc43)C2C(=O)N1c1cc(Cl)cc(Cl)c1` (stereo not shown) [Example 154] the same measures were “+++ (NAUC “+++” refers to an observed NAUC >170% of positive control)” and “+++ (NAUC “+++” refers to an observed NAUC >170% of positive control)”.
`O=C1C2C(Cc3c[nH]c4ccccc34)NC3(C(=O)Nc4c(Cl)cc(Cl)cc43)C2C(=O)N1c1cc(Cl)cc(Cl)c1` (stereo not shown) [Example 155]: the “Nauc @ 3 μM” value is on record as “++ (NAUC “++” refers to an observed NAUC 170-140% of positive control)” and the “Nauc @ 10 μM” value is on record as “+ (NAUC “+” refers to an observed NAUC <140% of positive control)”.
For `C[C@]1(O)CC2C3C(=O)N(c4cc(Cl)cc(Cl)c4)C(=O)C3C3(C(=O)Nc4c(Cl)cc(Cl)cc43)N2C1` (stereo partly shown) [Example 156] the same measures were “++ (NAUC “++” refers to an observed NAUC 170-140% of positive control)” and “+++ (NAUC “+++” refers to an observed NAUC >170% of positive control)”.
For `O=C(O)CC1NC2(C(=O)Nc3c(Cl)cc(Cl)cc32)C2C(=O)N(c3cc(Cl)cc(Cl)c3)C(=O)C12` (stereo not shown) [Example 157], the “Nauc @ 3 μM” value is “+++ (NAUC “+++” refers to an observed NAUC >170% of positive control)” and the “Nauc @ 10 μM” value is on record as “+ (NAUC “+” refers to an observed NAUC <140% of positive control)”.
Take `COc1cc(Cl)cc(N2C(=O)C3C4C[C@](C)(O)CN4C4(C(=O)Nc5c(Cl)cc(Cl)cc54)C3C2=O)c1` (stereo partly shown) [Example 158]: the “Nauc @ 3 μM” value was “++ (NAUC “++” refers to an observed NAUC 170-140% of positive control)” and the “Nauc @ 10 μM” value is given as “+++ (NAUC “+++” refers to an observed NAUC >170% of positive control)”.
As to `COc1c(Cl)cc(N2C(=O)C3C4C[C@](C)(O)CN4C4(C(=O)Nc5c(Cl)cc(Cl)cc54)C3C2=O)cc1Cl` (stereo partly shown) [Example 159], the “Nauc @ 3 μM” value is “+++ (NAUC “+++” refers to an observed NAUC >170% of positive control)” and the “Nauc @ 10 μM” value is “+++ (NAUC “+++” refers to an observed NAUC >170% of positive control)”.
Regarding `COc1cc(Cl)cc(N2C(=O)C3C4C[C@](C)(F)CN4C4(C(=O)Nc5c(Cl)cc(Cl)cc54)C3C2=O)c1` (stereo partly shown) [Example 160], the “Nauc @ 3 μM” value is given as “+ (NAUC “+” refers to an observed NAUC <140% of positive control)” and the “Nauc @ 10 μM” value is on record as “++ (NAUC “++” refers to an observed NAUC 170-140% of positive control)”.
Take `N=C(N)NCCCC1NC2(C(=O)Nc3c(Cl)cc(Cl)cc32)C2C(=O)N(c3cc(Cl)cc(Cl)c3)C(=O)C12` (stereo not shown) [Example 163]: the “Nauc @ 3 μM” value was “++ (NAUC “++” refers to an observed NAUC 170-140% of positive control)” and the “Nauc @ 10 μM” value is on record as “+ (NAUC “+” refers to an observed NAUC <140% of positive control)”.
